# Measurements reported in patent US6365628B1 (Thia Medica AS, priority 1998, dated 2002).
# Legend:
# [1] = system: young obese Zucker (fa/fa) rats; assay: Body weight gain, liver and adipose tissue weights in young obese Zucker rats (Example 9); type: in vivo, rat; details: 5 week-old male obese Zucker (fa/fa) rats, TTA 300/kg/day in 0.5% CMC, 11 days, means ± SD
# Protocol: The obese Zucker (fa/fa) rats used in this study were bred at the U 465 INSERM animal facility from pairs originally provided by the Harriet G. Bird Laboratory (Stow, Mass., USA). Unless otherwise stated, the animals were maintained under a constant light-dark cycle (light from 7:00 a.m. to 7:00 p.m.) at 21±1° C. and were given free access to food and water. Three rats were housed per cage. Weight gains were recorded daily.
# 5 week-old male obese Zucker (fa/fa) rats fed with TTA, 300/kg/day suspended in 0.5% CMC. Control animals received CMC only. Following 11 days of treatment, rats were killed by cervical dislocation, liver and epididymal adipose tissue pads were dissected out and weighed. Data are means±SD of 6 animals in the control- and 6 animals in the experimental group.
# obese Zucker fa/fa rats = assay: Fatty acid composition in liver and plasma of obese Zucker fa/fa rats (Example 19); type: in vivo, rat; details: 300 mg/day/kg gavage once daily for 10 days, delta-9-desaturated product of TTA
# Protocol: Male obese Zucker fa/fa rats, weighing 100 g at the start of the experiment, were housed in pairs in metal wire cages in a room maintained at 12 h light-dark cycles and a constant temperature of 20±3° C. The animals were acclimatised for at least one week under these conditions before the start of the experiment.
# TTA and palmitic acid (control), was suspended in 0.5% (w/v) carboxymethyl cellulose (CMC) and administered at a dose of 300 mg/day/kg body weight, by gastric intubation (gavage) once daily for 10 days. The rats were fasted for 2 hours before termination of the experiment. Blood and organs were collected. Total lipids were extracted from liver and plasma. The lipids were evaporated, saponified and esterified prior to separation using a Carlo Erba 2900 gas-chromatograph.
# PPARγ = target: T1, PPARγ (Homo sapiens, UniProt P37231); assay: Ligand of PPARγ; type: binding
# T1 sequence (P37231 1-505): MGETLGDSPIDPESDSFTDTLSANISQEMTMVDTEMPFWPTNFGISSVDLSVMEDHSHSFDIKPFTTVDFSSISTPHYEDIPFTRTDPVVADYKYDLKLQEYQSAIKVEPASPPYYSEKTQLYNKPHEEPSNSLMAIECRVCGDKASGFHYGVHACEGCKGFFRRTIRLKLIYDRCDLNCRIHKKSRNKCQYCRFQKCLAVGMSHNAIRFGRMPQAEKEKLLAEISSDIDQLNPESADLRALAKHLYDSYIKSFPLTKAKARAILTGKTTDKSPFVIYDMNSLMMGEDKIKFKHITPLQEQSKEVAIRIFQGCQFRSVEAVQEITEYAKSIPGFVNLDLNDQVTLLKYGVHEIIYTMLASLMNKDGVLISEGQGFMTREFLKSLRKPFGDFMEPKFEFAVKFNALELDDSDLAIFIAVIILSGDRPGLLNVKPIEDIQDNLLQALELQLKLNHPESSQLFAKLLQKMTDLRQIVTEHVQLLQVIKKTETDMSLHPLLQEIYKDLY
# male Wistar rats = assay: Hepatic levels of triacylglycerol in rats fed fatty acid analogues (Example 17); type: in vivo, rat; details: TTA 150 mg/kg/day for 6 days, no prefeeding
# From the text: Even an increased hepatic level of triacylglycerol may be relieved by TTA. Feeding rats with an inhibitor of fatty acid oxidation will increase the level of hepatic triacylglycerol resulting in fatty liver. Tetradecyl-4-thia propionic acid (TTP) is a fatty acid analogue with a sulphur atom in the 4 position. This analogue inhibits the β-oxidation of fatty acids due to the formation of a mitochondrial inhibitor. Feeding rats with this analogue results in the formation of fatty. However, if the rats are fed with a combination of TTA and TTP, the formation of fatty liver is avoided (Table 8). This provides evidence that TTA may be used for the treatment of conditions with an increased hepatic level of triacylglycerol. Male Wistar rats had free access to water and rat maintenance chow. They were fed palmitic acid or fatty acid analogues suspended in 0.5% CMC for 6 days. In some experiments TTA or TTP were fed for 3 days before feeding both for 6 days. At the end of the experiment the rats were fasted overnight, killed, the liver removed and homogenized. Triacylglycerol was measured in the homogenate.
substance,measurement,setting,value
Tetradecylthioacetic acid [TTA],Body weight gain,[1],6.23 ± 0.28 g/day
same,Epididymal adipose tissue/body weight (%),[1],0.78 ± 0.02%
same,"Monounsaturated tetradecylthioacetic acid, fatty acid composition in liver (% of total)",obese Zucker fa/fa rats,1.1 ± 0.2 % of total
same,"Monounsaturated tetradecylthioacetic acid, fatty acid composition in plasma (% of total)",obese Zucker fa/fa rats,0.2 ± 0.1 % of total
same,Ligand of PPARγ,PPARγ,less potent ligand
same,Hepatic triacylglycerol TG (μmol/g),male Wistar rats,"7,7 ± 2,9 μmol/g"
